Results: US20250304621A1, “POLYPEPTIDE FOR SPECIFICALLY BLOCKING BINDING OF ACVR1C TO GREM1 AND USE THEREOF” (The Seventh Affiliated Hospital, Sun Yat-Sen University, priority 2024, published 2025)
“Also recorded” adds a separate entry of the source.

Assays:
[1] = test system: HCT116-luc cells (colorectal liver metastasis); test: Colorectal liver metastasis model: HCT116-luc cells injected through the spleen, live bioluminescence imaging; format: in vivo; details: NOG mice, PLV-GREM1 HCT116-luc cells via spleen, 10 mg/kg by tail vein once every 2 days
Procedure: Grouping: a total of 18 6-week-old NOG mice were taken and randomized into 3 groups 5 days after adaptive feeding: control group (PLV), GREM1 overexpression group (PLV-GREM1) and ACVR1C polypeptide treatment group (PLV-GREM1+ACVR1C peptide), 6/group.
Modeling: HCT116-luc cell suspensions were prepared with cell densities adjusted to 1×10^7 cells/mL. The mice to be treated were taken out and anesthetized by intraperitoneal injection of 2% sodium pentobarbital at a dose of 45 μL/20 g. After about 5 minutes, the mice began to enter a quiet state. White gauze was spread on a mouse board, the mice were placed in left lying position, the abdominal hair of the mice was shaved, and the abdominal side was disinfected from the neck to the groin with alcohol cotton pads. The skin was cut open 1-2 cm below the lower edge of the left costal arch to expose the abdominal wall muscles. The abdominal wall muscles were pulled with pointed forceps to avoid the spleen in the abdominal cavity. The abdominal wall muscles were cut open to expose the internal organs. The pancreas was gently pulled with circular forceps, and the spleen was pulled out. […]

[2] = target: T1, binding of GREM1 to ACVR1C (Homo sapiens, UniProt O60565); test: Pull-down experiment: Fc-tagged ACVR1C-ECD and his-tagged full-length GREM1 with ACVR1C peptide; details: purified Fc-tagged ACVR1C-ECD (AA 1-113) and his-tagged full-length GREM1; FIG. 11b
T1 construct: his-tagged full-length GREM1 were purified; His; made in house
T1 sequence (O60565 25-184): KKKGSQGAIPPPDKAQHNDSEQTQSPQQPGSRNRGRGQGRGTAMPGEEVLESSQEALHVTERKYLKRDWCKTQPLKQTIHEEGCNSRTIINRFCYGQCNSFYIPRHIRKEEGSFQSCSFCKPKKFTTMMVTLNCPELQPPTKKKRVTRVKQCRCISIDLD
Procedure: The Fc-tagged ACVR1C extracellular domain (ACVR1C-ECD, AA 1-113) and his-tagged full-length GREM1 were purified, and ACVR1C peptide (with an amino acid sequence of TECCFTDFCNNITLHLPTA, SEQ ID NO: 7) which blocked the binding of ACVR1C to GREM1 ligand thereof was synthesized (FIG. 11a). The Pull-down experiment was performed.

GREM1 = target: T2, GREM1 (Homo sapiens (Human), UniProt O60565 25-184, limits assumed); test: co-IP in HCT116 cells
T2 construct: also called Gremlin1
T2 sequence: T1 sequence (O60565 25-184)
From the text: To further describe the binding sites between GREM1 and ACVR1C, a truncated GREM1 and ACVR1C extracellular domain (ACVR1C-ECD) is constructed.

Molecule | inhibition of liver metastasis of colorectal cancer cells (bioluminescence imaging) ([1]; FIG. 12) | inhibition of liver metastasis of colorectal cancer cells (bioluminescence imaging) ([1]; FIG. 12, listed as polypeptide) | inhibition of the binding of GREM1 to ACVR1C (pull-down) [2] | binding result (GREM1)
TECCFTDFCNNITLHLPTA [ACVR1C peptide] | significantly lower than that in a control group | significantly inhibits liver metastasis of colorectal cancer cells; also recorded: significantly inhibit the colorectal cancer metastasis | competitively inhibited the binding of GREM1 to ACVR1C; also recorded: can interfere or block the binding of GREM1 to ACVR1C | 
ELSPGLKCVCLLCDSSNFTCQTEGACWASVMLTNGKEQVIKSCVSLP (receptor) [truncated ACVR1C-ECD lacking amino acids 68-113 (A4)] |  |  |  | no binding
